Key:
[1] = tested on: Saccharomyces cerevisiae uracil-requiring BY4700 (ura3Δ) strain; assay: Uracil concentration in AKD culture medium (FIG. 19); format: cell-based
Description: A concentration of uracil contained in the amino acid mix of the AKD culture mediums for convenience was adjusted to 0.001%, 0.005%, 0.05%, 0.1%, and 0.5%, respectively, and proliferation of a Saccharomyces cerevisiae uracil-requiring BY4700 (ura3Δ) strain was investigated. OD600 for 1/100 solutions after 42 hours was 0.10, 0.21, 0.21, 0.22 and 0.20, respectively. Proliferation was confirmed to be low at 0.001%, to increase at 0.005%. and to markedly increase at between 0.05% and 0.1%. Proliferation was confirmed to be somewhat inhibited at 0.5%. Given the above-noted results, a preferred uracil concentration was understood to be around 0.01%.

RAK2683 yeast strain = assay: Investigation of nitrogen source used singly in MM culture medium instead of ammonium sulfate (Table 4); format: cell-based, Saccharomyces cerevisiae; conditions: Table 4 conditions
[2] = tested on: Saccharomyces cerevisiae RAK3599 strain; assay: SynAA culture medium: elimination of single components and inorganic ion concentration; format: cell-based; conditions: one component of the inorganic ion mix eliminated from SynAA culture medium
Description: In a case where no special provisions are made, a procedure for a cultivation experiment using the culture medium to be investigated for proliferation was such that a yeast undergoing investigation was pre-cultured in a YPD liquid culture medium at 28° C. for 24 hours, after which the yeast was adjusted such that OD600=20. […] In addition, OD600 was measured every 15 minutes by a spectrophotometer (Cell density meter co8000, WPA). Hereafter, data is represented by graphs for a case using the automatic spectrophotometer; however, these graphs are primarily used to compare the slope of logarithmic growth phase proliferation curves for each culture medium, and because OD600 is measured without dilution, values where OD600=3 to 3.5 or more may be incorrect.
Culture mediums were prepared in which one component each of the components configuring the inorganic ion mix was eliminated from the SynAA culture medium, and OD600 was measured. […] Thereafter, an investigation specifically of inorganic ion concentration was conducted. […] An investigation was conducted using RAK3599 strain (hereafter, simply referred to as “RAK3599 strain”), which is a strain of Saccharomyces cerevisiae not having a particular nutritional requirement. Where no subsequent special provisions were made, proliferation was investigated by performing roller tube culture for an appropriate amount of time at 28° C. and measuring OD600.
MgSO4 concentration in the SynAA culture mediums was adjusted to 0%, 0.0001%, 0.001%, 0.01%, 0.1%, and 1%, respectively, and proliferation of the RAK3599 strain was investigated. […] Next, MgCl2 concentration in the SynAA culture mediums was adjusted to 0.001%, 0.01%, 0.1%, and 1%, respectively, and proliferation of the RAK3599 strain was investigated.
A culture medium was prepared in which one component each of the components configuring the vitamin mix was eliminated from the SynAA culture medium, with the SynAA culture medium as the control, and proliferation of the RAK3599 strain was investigated.

RAK3599 strain = assay: Investigation with AID and aY-AID culture medium (FIGS. 29 to 39); format: cell-based, Saccharomyces cerevisiae; conditions: for effect on proliferation when added at high concentrations: up to 1% or up to 0.2500%
Description: As shown in the following, an investigation was conducted into concentrations of each amino acid and a substitution potential of pantothenic acid for the amino acid in the AID culture medium. A suitable YPD culture medium was used as a control.
Next, the amino acids asparagine, isoleucine, phenylalanine, and valine were each adjusted to a culture medium additive concentration of […], 0.0312%, 0.0625%, 0.1250%, and 0.2500%, and OD600 was measured after 24 hours.
Isoleucine concentration in the aY-AID culture medium was adjusted to 0, 0.01 mg/mL, 0.1 mg/mL, 0.5 mg/mL, and 1 mg/mL, respectively, and proliferation of the RAK3599 strain was investigated.
Phenylalanine concentration in the aY-AID culture medium was adjusted to 0, 0.01, 0.1, 0.5, and 1 mg/mL, respectively, and proliferation of the RAK3599 strain was investigated.
Valine concentration in the aY-AID culture medium was adjusted to 0, 0.01, 0.1, 0.5, and 1 mg/mL, respectively, and proliferation of the RAK3599 strain was investigated.
Serine concentration in the AID culture medium was adjusted to 0, 0.01 mg/mL, 0.1 mg/mL, 0.5 mg/mL, and 1 mg/mL, respectively, and proliferation of the RAK3599 strain was investigated.
Threonine concentration in the AID culture medium was adjusted to 0, 0.01, 0.1, 0.5, and 1 mg/mL, respectively, and proliferation of the RAK3599 strain was investigated.
Asparagine concentration in the AID culture medium was adjusted to 0, 0.01, 0.1, 0.5, and 1 mg/mL, respectively, and proliferation of the RAK3599 strain was investigated.
An investigation was conducted into vitamins contained in the AID culture medium. […]

[3] = tested on: Saccharomyces cerevisiae RAK3599 strain; assay: Glutamine, cysteine and amino acid groups in AYD′ / AYD culture medium (FIGS. 40, 41); format: cell-based
Description: For the AYD′ culture medium, an investigation was conducted into glutamine and cysteine concentrations using Saccharomyces cerevisiae RAK3599 strain.

[4] = tested on: Saccharomyces cerevisiae tryptophan-requiring BY4710 (trp1Δ) strain; assay: Tryptophan concentration in AKD culture medium (FIG. 18); format: cell-based
Description: Tryptophan concentration in the AKD culture mediums was adjusted to 0.001%, 0.01%, 0.1%, and 1%, respectively, and proliferation of a Saccharomyces cerevisiae tryptophan-requiring BY4710 (trp1Δ) strain was investigated. OD600 for 1/100 solutions after 48 hours was 0.08, 0.15, 0.13, and 0.12, respectively. […] Given the above-noted results, a preferred tryptophan concentration was understood to be around 0.01%.

[5] = tested on: Saccharomyces cerevisiae adenine-requiring BY4725 (ade2Δ) strain; assay: Adenine concentration in AKD culture medium (FIG. 20); format: cell-based
Description: A concentration of adenine contained in the amino acid mix of the AKD culture mediums for convenience was adjusted to 0%, 0.005%, 0.01%, 0.05%, 0.1%, and 0.5%, respectively, and proliferation of a Saccharomyces cerevisiae adenine-requiring BY4725 (ade2Δ) strain was investigated. OD600 for 1/20 solutions after 42 hours was 4, 15, 18, 18, 13 and 16, respectively. […] Given the above-noted results, a preferred adenine concentration was understood to be around 0.01%.

[6] = tested on: Saccharomyces cerevisiae histidine-requiring BY4714 (his3Δ1) strain; assay: Histidine concentration in AKD culture medium (FIG. 17); format: cell-based
Description: Histidine concentration in the AKD culture mediums was adjusted to 0.001%, 0.01%, 0.1%, and 1%, respectively, and proliferation of a Saccharomyces cerevisiae histidine-requiring BY4714 (his3Δ1) strain was investigated. A maximum value was reached between 0.01% and […]. OD600 for 1/100 solutions after 42 hours was 0.07, 0.18, 0.18, and 0.15, respectively. Given the above-noted results, a preferred histidine concentration was understood to be around 0.01%.

**Q.** `O=c1cc[nH]c(=O)[nH]1` [uracil] was tested. Which “concentration at which proliferation was somewhat inhibited” value [1] did it give?
**A.** 0.5%

**Q.** And the preferred concentration [1]?
**A.** around 0.01%

**Q.** What about the “OD600 for 1/100 solutions after 42 hours” value ([1]; uracil 0.001%) of the same compound?
**A.** 0.10

**Q.** And the “OD600 for 1/100 solutions after 42 hours” value ([1]; uracil 0.005%)?
**A.** 0.21

**Q.** And the “OD600 for 1/100 solutions after 42 hours” value ([1]; uracil 0.05%)?
**A.** 0.21

**Q.** What about the “OD600 for 1/100 solutions after 42 hours” value ([1]; uracil 0.1%) of the same compound?
**A.** 0.22

**Q.** And the “OD600 for 1/100 solutions after 42 hours” value ([1]; uracil 0.5%)?
**A.** 0.20

**Q.** Which “proliferation when added singly as nitrogen source” value (from here on “proliferation when added singly”) (RAK2683 yeast strain) does the source give for `N.N.O=S(=O)(O)O` [Ammonium sulfate] here?
**A.** proliferation was confirmed to be extremely poor

**Q.** What about the “proliferation when the component is not added” value [2] of the same compound?
**A.** higher proliferation

**Q.** With `C[C@@H](O)[C@H](N)C(=O)O` [Threonine, L-Threonine] as the compound, how does the “proliferation when added singly” value (RAK2683 yeast strain) read?
**A.** almost no proliferation

**Q.** And the “content at which proliferation particularly increased” value (RAK3599 strain; AID culture medium)?
**A.** around 0.5 mg/mL

**Q.** And the “effect on proliferation when added at high concentrations” value (RAK3599 strain; AID culture medium)?
**A.** proliferation was confirmed to be inhibited

**Q.** And the “preferred concentration / content” value (RAK3599 strain; AID or aY-AID culture medium)?
**A.** around 0.5 g/L

**Q.** What does the source list for `NC(=O)CC[C@H](N)C(=O)O` [Glutamine, L-Glutamine]?
**A.** appropriate concentration ([3]; AYD′ culture medium): 5 g/L; growth ([3]; AYD′ culture medium, glutamine concentration set to 10 times the previous concentration): growth was confirmed to be extremely improved; effect on proliferation when added at high concentrations (RAK3599 strain; AID culture medium): proliferation was confirmed to be inhibited

**Q.** How did the “proliferation when added singly” value (RAK2683 yeast strain) turn out when `CC(=O)O.N` [Ammonium acetate] was run?
**A.** did not, as a whole, exhibit favorable proliferation

**Q.** Which results are given for `CSCC[C@H](N)C(=O)O` [Methionine, L-Methionine]?
**A.** proliferation when eliminated from the AYD culture medium ([3]; amino acid group or individual amino acid of the AY5 group eliminated): proliferation decreases; effect on proliferation when added at high concentrations (RAK3599 strain; AID culture medium): proliferation was confirmed to be inhibited

**Q.** Which results are given for `N[C@@H](Cc1c[nH]c2ccccc12)C(=O)O` [Tryptophan, L-Tryptophan]?
**A.** concentration at which proliferation was somewhat inhibited [4]: 0.1%; preferred concentration [4]: around 0.01%; OD600 for 1/100 solutions after 48 hours ([4]; tryptophan 0.001%): 0.08; OD600 for 1/100 solutions after 48 hours ([4]; tryptophan 0.01%): 0.15; OD600 for 1/100 solutions after 48 hours ([4]; tryptophan 0.1%): 0.13; OD600 for 1/100 solutions after 48 hours ([4]; tryptophan 1%): 0.12

**Q.** What does the source list for `NCC(=O)O` [Glycine]?
**A.** proliferation when added singly as nitrogen source (RAK2683 yeast strain): almost no proliferation; effect on proliferation when added at high concentrations (RAK3599 strain; AID culture medium): proliferation was confirmed to be inhibited

**Q.** How did the “concentration at which proliferation was slightly inhibited” value [5] turn out when `Nc1ncnc2nc[nH]c12` [adenine] was run?
**A.** ≥ 0.1%

**Q.** What about the preferred concentration [5] of the same compound?
**A.** around 0.01%

**Q.** And the “OD600 for 1/20 solutions after 42 hours” value ([5]; adenine 0%)?
**A.** 4

**Q.** And the “OD600 for 1/20 solutions after 42 hours” value ([5]; adenine 0.005%)?
**A.** 15

**Q.** What about the “OD600 for 1/20 solutions after 42 hours” value ([5]; adenine 0.01%) of the same compound?
**A.** 18

**Q.** And the “OD600 for 1/20 solutions after 42 hours” value ([5]; adenine 0.05%)?
**A.** 18

**Q.** What about the “OD600 for 1/20 solutions after 42 hours” value ([5]; adenine 0.1%) of the same compound?
**A.** 13

**Q.** What about the “OD600 for 1/20 solutions after 42 hours” value ([5]; adenine 0.5%) of the same compound?
**A.** 16

**Q.** Which “proliferation when added singly” value (RAK2683 yeast strain) does the source give for `N[C@@H](CCC(=O)[O-])C(=O)[O-].O.[Na+].[Na+]` [Glutamic acid, L-Glutamic acid sodium salt hydrate] here?
**A.** favorable proliferation

**Q.** For `O=C(O)[C@@H]1CCCN1` [Proline, L-Proline], which “proliferation when added singly” value (RAK2683 yeast strain) is on record?
**A.** favorable proliferation

**Q.** Which results are given for `N[C@@H](CS)C(=O)O` [Cysteine, L-Cysteine]?
**A.** appropriate concentration ([3]; AYD′ culture medium): around 0.01 g/L; effect on proliferation when added at high concentrations (RAK3599 strain; AID culture medium): proliferation was confirmed to be inhibited

**Q.** `Cl.N[C@@H](Cc1c[nH]cn1)C(=O)O.O` [Histidine, L-Histidine hydrochloride hydrate] was tested. Which preferred concentration [6] did it give?
**A.** around 0.01%

**Q.** What about the “OD600 for 1/100 solutions after 42 hours” value ([6]; histidine 0.001%) of the same compound?
**A.** 0.07

**Q.** And the “OD600 for 1/100 solutions after 42 hours” value ([6]; histidine 0.01%)?
**A.** 0.18

**Q.** What about the “OD600 for 1/100 solutions after 42 hours” value ([6]; histidine 0.1%) of the same compound?
**A.** 0.18

**Q.** And the “OD600 for 1/100 solutions after 42 hours” value ([6]; histidine 1%)?
**A.** 0.15

**Q.** And the “proliferation when added singly” value (RAK2683 yeast strain)?
**A.** almost no proliferation

From patent US10023836B2, “Medium for yeasts” (YAMAGUCHI UNIVERSITY, priority 2012, dated 2018)
